Results: patent US20260207777A1, “IMPROVED PEPTIDE INHIBITORS OF P53 BINDING PROTEIN 53BP1” (KAMAU THERAPEUTICS, INC., priority 2022, published 2026)

Key:
53BP1 Tudor domain = 53BP1 Tudor domain (Homo sapiens, UniProt Q12888); conditions: previously reported; mutants relative to i53; cited from earlier work
CD34+ HSPCs [1] = assay: editing of CD34+ HSPCs with purified i53 variant proteins and HBB-UBC-GFP AAV donor; flow cytometry; type: cell-based, human; conditions: for increase in levels of GFP integration over control edited cells: HBB-UBC-GFP AAV MOI 2500
Method: (§1) Chemically-modified single guide RNAs (sgRNAs) used to edit CD34+ HSPCs at the HBB locus were purchased from Synthego. The sgRNA sequences were modified by adding 2′-O-methyl-3′-phosphorothioate at the three terminal nucleotides of the 5′ and 3′ ends. The target sequence for the HBB sgRNA is as follows: HBB: 5′[…]-3′ (SEQ ID NO: 74). Cas9 protein (SpyFi Cas9) was purchased from Aldevron. The RNPs were complexed at a Cas9:sgRNA molar ratio of 1:2.5 at 25° C. for 10-15 min prior to electroporation. Cells were collected, counted, and pelleted at 180 g×7 min. The cell pellets were resuspended in Maxcyte buffer with complexed RNPs and electroporated using a Maxcyte EXPERT ATx Nucleofector. After electroporation cells were plated at 3.5×10^5 cells/mL in media supplemented with cytokines and the desired AAV donor added at 5.0×10^2-2.5×10^4 vector genomes/cell. 24 h after nucleofection, cells were spun down, washed once with media, and seeded into AAV-free media at a density of 3.5×10^5 cells/mL.
(§2) CD34+ HPSCs were edited with protein variants 3 days post thaw and were harvested 2 days post nucleofection for NGS analysis or 3-5 days post nucleofection for GFP expression analysis. Editing reactions with proteins at a given concentration were repeated in duplicate or triplicate (either using the same CD34+ HSPC donor or across multiple donors).
Rates of targeted integration of the HBB UBC GFP donor were measured using a Beckman Coulter CytoFLEX. DAPI (Miltenyi Biotec) was used to discriminate live and dead cells. Flow cytometry data were analyzed using FlowJo 10 software.

53BP1 = 53BP1 (Homo sapiens, UniProt Q12888); conditions: transiently expressed in cells; cited from earlier work
Chain of 53BP1 (Q12888 whole entry): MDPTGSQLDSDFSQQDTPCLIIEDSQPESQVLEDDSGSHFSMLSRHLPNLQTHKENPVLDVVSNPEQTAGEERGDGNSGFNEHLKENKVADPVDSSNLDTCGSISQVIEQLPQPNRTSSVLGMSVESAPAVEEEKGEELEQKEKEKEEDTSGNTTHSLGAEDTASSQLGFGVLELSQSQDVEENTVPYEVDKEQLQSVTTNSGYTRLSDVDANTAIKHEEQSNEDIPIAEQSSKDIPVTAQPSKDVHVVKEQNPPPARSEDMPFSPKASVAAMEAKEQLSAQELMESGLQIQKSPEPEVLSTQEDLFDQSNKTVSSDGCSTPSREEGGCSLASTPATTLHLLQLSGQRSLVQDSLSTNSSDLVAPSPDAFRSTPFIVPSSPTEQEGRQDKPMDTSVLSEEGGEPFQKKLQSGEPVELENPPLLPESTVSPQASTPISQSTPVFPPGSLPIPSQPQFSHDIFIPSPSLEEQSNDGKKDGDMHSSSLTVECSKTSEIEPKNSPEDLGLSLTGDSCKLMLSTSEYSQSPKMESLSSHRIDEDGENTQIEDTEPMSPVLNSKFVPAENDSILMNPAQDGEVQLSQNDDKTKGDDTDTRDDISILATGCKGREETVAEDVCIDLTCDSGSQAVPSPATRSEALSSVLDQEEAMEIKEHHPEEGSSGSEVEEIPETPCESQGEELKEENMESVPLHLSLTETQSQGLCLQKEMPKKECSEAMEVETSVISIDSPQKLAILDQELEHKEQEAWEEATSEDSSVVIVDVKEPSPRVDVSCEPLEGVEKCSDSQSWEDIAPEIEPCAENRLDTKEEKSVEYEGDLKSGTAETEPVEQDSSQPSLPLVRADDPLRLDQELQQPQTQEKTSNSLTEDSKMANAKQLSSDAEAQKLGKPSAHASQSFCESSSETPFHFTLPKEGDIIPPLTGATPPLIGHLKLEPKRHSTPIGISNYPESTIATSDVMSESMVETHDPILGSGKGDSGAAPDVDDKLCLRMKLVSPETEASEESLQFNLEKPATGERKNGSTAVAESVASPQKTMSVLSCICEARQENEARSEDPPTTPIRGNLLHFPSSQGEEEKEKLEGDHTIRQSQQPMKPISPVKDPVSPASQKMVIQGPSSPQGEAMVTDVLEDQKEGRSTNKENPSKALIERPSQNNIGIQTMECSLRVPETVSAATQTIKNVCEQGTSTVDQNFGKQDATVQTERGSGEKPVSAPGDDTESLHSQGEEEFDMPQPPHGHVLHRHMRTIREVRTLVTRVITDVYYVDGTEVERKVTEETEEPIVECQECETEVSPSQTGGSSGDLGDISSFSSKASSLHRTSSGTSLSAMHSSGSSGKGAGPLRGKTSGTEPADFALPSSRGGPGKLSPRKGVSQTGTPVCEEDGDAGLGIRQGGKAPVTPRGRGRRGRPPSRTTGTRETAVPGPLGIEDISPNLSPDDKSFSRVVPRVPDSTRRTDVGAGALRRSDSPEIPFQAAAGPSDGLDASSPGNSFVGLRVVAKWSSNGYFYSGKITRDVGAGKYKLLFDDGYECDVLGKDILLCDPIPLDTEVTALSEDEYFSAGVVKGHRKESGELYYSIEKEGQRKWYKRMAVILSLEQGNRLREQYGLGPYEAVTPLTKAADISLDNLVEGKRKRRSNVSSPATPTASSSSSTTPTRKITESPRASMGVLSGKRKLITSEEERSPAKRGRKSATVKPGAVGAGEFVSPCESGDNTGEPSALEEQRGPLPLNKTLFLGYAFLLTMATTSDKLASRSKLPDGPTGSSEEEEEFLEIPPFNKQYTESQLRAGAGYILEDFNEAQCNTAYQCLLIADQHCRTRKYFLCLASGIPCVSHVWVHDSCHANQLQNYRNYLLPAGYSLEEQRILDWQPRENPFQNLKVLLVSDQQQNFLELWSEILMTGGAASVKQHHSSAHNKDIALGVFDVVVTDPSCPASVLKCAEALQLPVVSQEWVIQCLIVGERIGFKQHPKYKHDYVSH

CD34+ HSPCs [2] = assay: editing of CD34+ HSPCs with purified i53 variant proteins and HBB-SNP AAV donor; NGS of editing outcomes; type: cell-based, human; conditions: for increase in levels of HDR corrected alleles over control edited cells: FIG. 13; for increase in levels of HDR corrected alleles over DM: L67R/L67H value is the average of both
Method: as §1, §2
24 h after nucleofection, cells were spun down, washed with media, and seeded into AAV and DNAPKi-free media at a density of 3.5×10^5 cells/mL.
The frequency of homology directed repair (HDR) and other editing outcomes at HBB were measured using Next Generation Sequencing (NGS). An NGS assay was developed to determine the frequency of at the HBB locus by quantifying the total number of alleles that have been either: (1) not edited (% WT), (2) changed by HDR to incorporate sequence differences present in the AAV repair template (% HR), or (3) mutated during the genome correction process resulting in a gene that produces mutant β-globin (% INDELs).
For this assay, genomic DNA was harvested from cells using a Quick-DNA 96 Plus Kit (Zymo Research). The DNA concentration was measured using a Qubit 1×dsDNA BR assay kit (ThermoFisher). Purified genomic DNA was then used to amplify the HBB locus via polymerase chain reaction (PCR). The PCR products were diluted using nuclease-free water to serve as the template DNA for targeted NGS library prep. A second PCR with primers carrying partial Illumina adapters was performed to amplify a 142 base pair sequence that includes the region of the HBB locus that is to be corrected during the genome correction process. The PCR products were diluted again to serve as templates in a third PCR reaction using Nextera XT index primers. This third PCR reaction was used to assign unique identifiers to each sample and to add the full length adapter sequences necessary for Illumina sequencing. The size of the PCR products was assessed on an Agilent BioAnalyzer. PCR products were then pooled, purified using a Qiagen PCR purification kit, and quantified using PicoGreen in order to ready the PCR products for sequencing.
Based on the PicoGreen concentration, the library of pooled PCR products was diluted to a final concentration of 4 nM. Sequencing was performed on a MiSeq system using an Illumina MiSeq sequencing reagent kit (V2, 300 cycles). A 10% PhiX control library was added to the sample library to improve sequence diversity and to allow for error rate measurements. The library was denatured and loaded at […] onto the sequencing reagent cartridge. The sequencing entails paired-end 150 base pair reads and dual indexing reads. The sequencing data was demultiplexed based on the sample indexes provided and FASTQ files for each sample are generated.
The FASTQ files were processed using the CRISPResso2 pipeline^3. The data was reported as % WT, % corrected by HR, and % INDELs. […]

CD34+ HSPCs [3] = assay: editing at the off-target editing site OT-1 (NGS-based analysis); type: cell-based, human; conditions: protein 0.8 mg/mL
Text: Editing outcomes at the off-target (OT) editing site OT-1 can be assessed using an assay very similar to the one described above for measuring the targeted integration of HBB-SNP. The off-target editing site was identified via three different methods (in silico prediction,^13 Circle-Seq,^14 and Guide-Seq^15) and was confirmed to be off-target editing site of significance via amplicon sequencing. The workflow for the OT-1 amplicon sequencing assay is very similar to the on-target sequencing assay but involves one less PCR step. A small 166 base pair sequence encompassing the OT-1 editing site is amplified directly from genomic DNA in the first PCR and then tagged with barcode and adapter sequences in a second PCR. The resulting PCR products are sized, quantified, and prepared for sequencing in the same manner as for the HBB on-target sequencing assay. The sequencing data is also processed using the Crispresso2 pipeline,^3 but in contrast to the on-target sequencing assay no homology direct repair outcomes are present at OT-1, only % WT and % INDELs are reported.

[4] = tested on: HDR-mediated integration of a donor sequence; assay: i53 as protein-based additive, enhancement of HDR-mediated integration of a donor sequence (data not shown); type: cell-based; conditions: 1.5 mg/mL purified i53 in nucleofection solution, relatively inconsistent results

Chain of 53BP1 Tudor domain (Q12888 1484-1603 limits assumed): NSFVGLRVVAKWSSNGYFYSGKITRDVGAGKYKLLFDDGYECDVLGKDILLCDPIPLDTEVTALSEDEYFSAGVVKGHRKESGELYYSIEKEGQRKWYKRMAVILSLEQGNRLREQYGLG

In the case of “i53: engineered ubiquitin variant, known inhibitor of 53BP1, selectively binds the Tudor domain of 53BP1 [reference compound]”, the “binding to the 53BP1 Tudor domain” value (53BP1 Tudor domain) is listed as “selectively bind”, the “increase of % HDR over DM” value (CD34+ HSPCs [1]; HBB-UBC-GFP AAV MOI 1250, protein 0.4 mg/mL, GFP integration in live cells, L67R/L67H value is the average of both) is listed as 19% and the “increase in levels of GFP integration over control edited cells” value (“increase in levels of GFP integration” for short) (CD34+ HSPCs [1]; protein 0.1 mg/mL) is listed as 5%. The “increase in levels of GFP integration” value (CD34+ HSPCs [1]; protein 0.2 mg/mL) was 18%, the “increase in levels of GFP integration” value (CD34+ HSPCs [1]; protein 0.4 mg/mL) was 29% and the “increase in levels of GFP integration” value (CD34+ HSPCs [1]; protein 0.8 mg/mL) was 45%. The “recruitment of 53BP1 to DSBs” value (53BP1) was “block recruitment of 53BP1 to DSBs”, the “increase in levels of HDR corrected alleles over control edited cells” value (CD34+ HSPCs [2]; MOI 312.5, protein 0.1 mg/mL) was 18% and the “increase in levels of HDR corrected alleles over control edited cells” value (CD34+ HSPCs [2]; MOI 312.5, protein 0.2 mg/mL) was 24%. The “increase in levels of HDR corrected alleles over control edited cells” value (CD34+ HSPCs [2]; MOI 312.5, protein 0.4 mg/mL) was 45%, the “increase in levels of HDR corrected alleles over control edited cells” value (CD34+ HSPCs [2]; MOI 2500, protein 0.1 mg/mL) was 3% and the “increase in levels of HDR corrected alleles over control edited cells” value (CD34+ HSPCs [2]; MOI 2500, protein 0.2 mg/mL) was 5%. The “increase in levels of HDR corrected alleles over control edited cells” value (CD34+ HSPCs [2]; MOI 2500, protein 0.4 mg/mL) was 18%, the “levels of HDR corrected alleles (normalized by total edited alleles), dose response” value (CD34+ HSPCs [2]; FIG. 26, protein 0.2, 0.4 and 0.8 mg/mL, MOIs 312.5 and 2500) was “decrease significantly as the protein concentrations decreased” and the “increase in levels of HDR corrected alleles over DM” value (CD34+ HSPCs [2]; HBB-SNP AAV MOI 312.5, protein 0.4 mg/mL) was 14%. The “increase in levels of HDR corrected alleles over DM” value (CD34+ HSPCs [2]; HBB-SNP AAV MOI 2500, protein 0.4 mg/mL) was 15%, the “frequency of INDELS at the off-target editing site OT-1” value (CD34+ HSPCs [3]) was “not significantly increase” and the “increases in HDR-mediated integration of a donor sequence” value [4] was 10-20%.
